In patent publication EP3156398A1, “AGONISTS OF THE CHEMOKINE RECEPTOR CXCR3” (Friedrich-Alexander-Universität Erlangen-Nürnberg, priority 2015, dated 2017):

Legend:
CXCR3-PK1 = molecular target: T1, CXCR3-PK1 (Homo sapiens, UniProt P49682); assay: β-arrestin 2 recruitment assay (PathHunter, DiscoveRx), CXCR3-PK1 construct; assay type: cell-based; conditions: for CXCR3-PK1 pEC50 ± SEM: HEK293-T cells, PathHunter, two to three experiments in triplicate
T1 construct: expressed in transfected cells; host or cells: HEK293 cells stably expressing beta-gal enzyme acceptor (PathHunter, DiscoveRx), transiently transfected
T1 sequence (P49682 1-368): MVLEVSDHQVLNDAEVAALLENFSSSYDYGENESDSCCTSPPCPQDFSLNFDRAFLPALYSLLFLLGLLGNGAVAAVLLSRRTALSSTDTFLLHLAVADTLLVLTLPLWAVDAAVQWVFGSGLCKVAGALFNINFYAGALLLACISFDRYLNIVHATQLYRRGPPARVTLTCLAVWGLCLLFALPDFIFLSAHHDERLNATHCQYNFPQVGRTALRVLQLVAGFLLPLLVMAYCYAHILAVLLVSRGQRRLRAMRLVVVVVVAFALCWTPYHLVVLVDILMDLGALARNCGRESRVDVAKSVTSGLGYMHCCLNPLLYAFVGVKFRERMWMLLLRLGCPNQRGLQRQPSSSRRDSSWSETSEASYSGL
In short: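 HEK293 cells stably expressing β-gal enzyme acceptor, transiently transfected with PK1-tagged wild-type CXCR3, seeded overnight at 37°C. Test compounds or CXCL11 at various concentrations in PBS pH 7.4 with 0.20% BSA, 4 h; detection mix 60 min at room temperature. β-gal fragment complementation read by chemiluminescence.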

[1] = test system: HEK293 cells transiently transfected with CXCR3; assay: Transwell migration assay; assay type: cell-based, human; conditions: for influence on CXCL11 induced migration: cells pre-incubated 15 minutes, compound in both chambers, CXCL11 as chemoattractant, Figure 5B; for induced migration compared to buffer control: compound applied to the source reservoir, on its own, 5 h, Figure 5A
Experimental: Transwell migration assay. HEK-293 cells were maintained in DMEM medium supplemented with 10% FBS and 1% penicillin/streptomycin. For DNA transfection, 5 µg plasmid DNA (CXCR3) was mixed with TE buffer to give a final of 105 µl solution and 15 µl CaCl2 (2M) was added. The DNA mixture was then dripped into 120 µl 2x HBSS solution, and the mixture was allowed to form calcium-phosphate precipitates for 45 minutes. The DNA/calcium-phosphate precipitate was dripped onto HEK293 cells (50% confluent in T25 flask), where the medium had been renewed and reduced to 1.5 ml 30 minutes prior to transfection. The cells were split and used for assays 48 h after transfection.
Migration of serum-starved HEK293 cell transiently transfected with CXCR3 was assessed using Transwell™ membranes (Costar; 8-µm pore). Filters were coated with 10 µg•mL^-1 fibronectin (in PBS 30 minutes at room temperature). The fibronectin solution was removed and the filters allowed to air-dry. The filters were placed in a 24-well dish that contained low serum (0.2%) DMEM supplemented with agonists or control buffer. HEK293 cells suspended in 0.2% serum DMEM containing test compounds were added to the upper chamber (1 × 10^5 cells/well). Cells were allowed to migrate for 5 h at 37 °C. Nonmigrated cells were removed from the top filter surface with a cotton swab. Migrated cells, attached to the bottom surface, were fixed in 3.7% formaldehyde (in PBS) and dyed with crystal violet. Transmigrated cells were counted in 5 predefined areas on the membrane using 20X objective.
To investigate the influence of FAUC1036 and FAUC1104 on CXCR3 induced migration, the inventors used these compounds alongside CXCL11 in a standard transwell assay with HEK293 cells transiently transfected with CXCR3. […] To test whether FAUC1036 and FAUC1104 influence CXCL11 induced migration, the inventors pre-incubated the cells with these compounds for 15 minutes and then set up the migration assay in the presence of either compound in both the top chamber (sink) containing the cells and in the lower chamber (source) containing CXCL11 as chemoattractant.

FLAG-CXCR3 = molecular target: T2, FLAG-CXCR3 (Homo sapiens, UniProt P49682); assay: ELISA based internalization assay; assay type: cell-based; conditions: CXCL11 100 nM, modulators 10 µM, 1h at 37°C; Figure 4B
T2 construct: expressed in transfected cells; host or cells: HEK293T cells, transient
T2 sequence (P49682 1-368): T1 sequence (P49682 1-368)
Experimental: Enzyme-linked immunosorbent assay based internalization assay. The day after transfection with FLAG-CXCR3, cells were trypsinized, resuspended into fresh culture medium and plated in poly(D-lysine)-coated 48-well assay plates. 48h after transfection the medium was replaced by fresh DMEM w/o serum containing one concentration of the endogenous ligand CXCL11 (100 nM) or the positive allosteric modulators (10 µM) and incubated for 1h at 37°C. The cells were fixed with 4% formaldehyde solution and stained with monoclonal Anti-Flag antibody (Sigma-Aldrich Life Science, St. Louis, MO) and subsequently with Anti-Mouse IgG-Peroxidase Antibody produced in rabbit. […] The reaction was stopped with 1M H2SO4 and the resulting color was detected at 492 nm using a microplate reader Clariostar (BMG labtech, Ortenberg, Germany).
The effect of FAUC1036 on receptor internalization was investigated by scanning laser confocal microscopy and ELISA-based assay. […] The quantification of receptor internalization upon the treatment with the endogenous agonists and with either β-arrestin 2 biased FAUC1036 or G-protein biased FAUC1104 was performed with ELISA based assay. The HEK293T cells transiently expressing FLAG-CXCR3 were stimulated with compounds and chemokines for one hour, washed, fixed and the amount of FLAG-CXCR3 present on the surface was detected by anti-FLAG antibody.

SMILES	β-arrestin 2 recruitment, intrinsic agonism (result in words) (CXCR3-PK1)	CXCR3-PK1 pEC50 ± SEM (CXCR3-PK1; CXCR3-PK1)	chemotaxis (result in words) [1]	influence on CXCL11 induced migration [1]	induced migration compared to buffer control [1]	receptor internalization (ELISA quantification) (FLAG-CXCR3)	CXCR3-PK1 efficacy (%) (CXCR3-PK1; % of CXCL11 mediated effect, CXCR3-PK1, listed as 11/FAUC103 6)	Emax (CXCR3-PK1; % of CXCL11 mediated effect, CXCR3-PK1, read-out: CXCR3-PK1 efficacy (%) (converted))	CXCR3-PK1 pEC50 ± SEM (CXCR3-PK1; CXCR3-PK1, listed as 11/FAUC103 6)	CXCR3-PK1 pEC50 ± SEM (CXCR3-PK1; CXCR3-PK1, listed as FAUC1036)
COc1ccc(C(=O)CCC(=O)N2Cc3ccccc3C[C@H]2C(=O)NCCCC[C@H](NC(=O)OC(C)(C)C)C(=O)NCC(c2ccccc2)c2ccccc2)cc1 [Compound 14, Tert-butyl ((S)-1-((2,2-diphenylethyl)amino)-6-((S)-2-(4-(4-methoxyphenyl)-4-oxobutanoyl)-1,2,3,4-tetrahydroisoquinoline-3-carboxamido)-1-oxohexan-2-yl)carbomate]	complete loss of intrinsic agonistic properties	No effect	strong chemotaxis	significantly higher CXCL11 induced migration	approximately 0.25 fold	does not induce receptor internalization				
CC(C)(C)OC(=O)N[C@@H](CCCCNC(=O)[C@@H]1Cc2ccccc2CN1C(=O)CCC(=O)c1ccccc1)C(=O)NCC(c1ccccc1)c1ccccc1 [Compound 11, Tert-butyl ((S)-1-((2,2-diphenylethyl)amino)-1-oxo-6-((S)-2-(4-oxo-4-phenylbutanoyl)-1,2,3,4-tertahydroisoquinoline-3-carboxamido)hexan-2-yl)carbamate]	activates the β2-arrestin recruitment		weak chemotaxis	no antagonizing effect	approximately 0.25 fold	induced receptor internalization	30±5	30	6.64±0.38	6.64 ± 0.38
